The record followed here is US20030144263A1, “Oxazolidinone derivatives, process for their preparation and pharmaceutical compositions containing them” (Syngenta Limited, priority 1998, published 2003).

Each structure is given as a SMILES string. Converted amounts (≈) assume the structure as drawn. Read-outs that look alike come from different tables or passages of the source.

Data set [1] concerns Staphylococcus aureus Oxford. The experiment in a line: MIC by agar-dilution, Staphylococcus aureus Oxford. It is filed as cell-based. The conditions noted are these: inoculum 10^4 CFU/spot, 37° C., 24 hours. On the procedure:
(§1) The following results were obtained on a standard in-vitro test system. The activity is described in terms of the minimum inhibitory concentration (MIC) determined by the agar-dilution technique with an inoculum size of 10^4 CFU/spot. Typically, compounds are active in the range 0.01 to 256 μg/ml.
(§2) Staphylococci were tested on agar, using an inoculum of 10^4 CFU/spot and an incubation temperature of 37° C. for 24 hours—standard test conditions for the expression of methicillin resistance.

The subject of data set [2] is Staphylococcus aureus Novb. Res (Novobiocin resistant). The experiment in a line: MIC by agar-dilution, Staphylococcus aureus Novb. Res. It is filed as cell-based. Conditions: inoculum 10^4 CFU/spot, 37° C., 24 hours. The method, then: as §1, §2
Data set [3] concerns Staphylococcus aureus MRQR (methicillin resistant quinolone resistant). The experiment in a line: MIC by agar-dilution, Staphylococcus aureus MRQR. It is filed as cell-based. The conditions noted are these: inoculum 10^4 CFU/spot, 37° C., 24 hours. On the procedure: as §1, §2
Data set [4] has as its system Coagulase Negative Staphylococci MS (methicillin sensitive). The experiment in a line: MIC by agar-dilution, Coagulase Negative Staphylococci MS. It counts as cell-based. Conditions: inoculum 10^4 CFU/spot, 37° C., 24 hours. The method, then: as §1, §2
The subject of data set [5] is Coagulase Negative Staphylococci MR (methicillin resistant). In words: MIC by agar-dilution, Coagulase Negative Staphylococci MR. It counts as cell-based. Conditions: inoculum 10^4 CFU/spot, 37° C., 24 hours. The method, then:
as §1, §2

Data set [6] has as its system Streptococcus pyogenes C203. The experiment in a line: MIC by agar-dilution, Streptococcus pyogenes C203. It counts as cell-based. Conditions: agar with 5% defibrinated horse blood, 10^4 CFU/spot, 37° C., 5% carbon dioxide, 48 hours. On the procedure:
(§3) The following results were obtained on a standard in-vitro test system. The activity is described in terms of the minimum inhibitory concentration (MIC) determined by the agar-dilution technique with an inoculum size of 10^4 CFU/spot. Typically, compounds are active in the range 0.01 to 256 μg/ml. Streptococci and enterococci were tested on agar supplemented with 5% defibrinated horse blood, an inoculum of 10^4 CFU/spot and an incubation temperature of 37° C. in an atmosphere of 5% carbon dioxide for 48 hours—blood is required for the growth of some of the test organisms.

A further data set concerns Enterococcus faecalis. In words: MIC by agar-dilution, Enterococcus faecalis. It is filed as cell-based. Conditions: agar with 5% defibrinated horse blood, 10^4 CFU/spot, 37° C., 5% carbon dioxide, 48 hours. The method, then: as §3
The next data set deals with Bacillus subtilis. The experiment in a line: MIC by agar-dilution, Bacillus subtilis. It is filed as cell-based. The conditions noted are these: inoculum 10^4 CFU/spot. On the procedure: as §1

Take `O=C([C@@H](O)CO)N1CC=C(c2ccc(N3C[C@H](COc4ccon4)OC3=O)cc2F)CC1` [Example 12, 5(R)-Isoxazol-3-yloxymethyl-3-(4-(1-(2(S),3-dihydroxypropanoyl)-1,2,5,6-tetrahydropyrid-4-yl)-3-fluorophenyl)oxazolidin-2-one]: the MIC in data set [1] (read-out: MIC) is 0.25 mg/L (≈ 0.559 µM); in data set [2] (read-out: MIC) it was 0.5 mg/L (≈ 1.12 µM); in data set [3] (read-out: MIC) it was 0.5 mg/L (≈ 1.12 µM); in data set [4] (read-out: MIC) it was 0.13 mg/L (≈ 0.291 µM); in data set [5] (read-out: MIC), 0.5 mg/L (≈ 1.12 µM); in data set [6] (read-out: MIC), 0.5 mg/L (≈ 1.12 µM). For the same compound, the results for the MIC in the data set on Enterococcus faecalis (read-out: MIC) and in the data set with Bacillus subtilis (read-out: MIC) were 1 mg/L (≈ 2.24 µM) and 0.25 mg/L (≈ 0.559 µM), respectively.
In turn, `CS(=O)(=O)c1ccc(N2C[C@H](COc3ccon3)OC2=O)cc1` [Example 163, 3-(4-Methylsulfonylphenyl)-5(R)-(isoxazol-3-yloxymethyl)oxazolidin-2-one] returned a melting point of 180 °C.
Take `O=C1O[C@@H](COc2cnsn2)CN1c1ccc(C2=CCOCC2)c(F)c1` [Example 142, 5(R)-1,2,5-Thiadiazol-3-yloxymethyl-3-(4-[3,6-dihydro-(2H)-pyran-4-yl]-3-fluorophenyl)oxazolidin-2-one]: the melting point was in the range of 146 to 148 °C.
Consider `O=C(C(O)CO)N1CC=C(c2c(F)cc(N3C[C@H](COc4ccon4)OC3=O)cc2F)CC1` (mixture of isomers) [Example 4, 5(R)-Isoxazol-3-yloxymethyl-3-(4-(1-(2(R,S),3-dihydroxypropanoyl)-1,2,5,6-tetrahydropyrid-4-yl)-3,5-difluorophenyl)-oxazolidin-2-one], for which the minimum inhibitory concentration (MIC) in data set [1] (read-out: MIC) was determined as 0.25 mg/L; in data set [2] (read-out: MIC), 0.5 mg/L; in data set [3] (read-out: MIC) it was 0.5 mg/L; in data set [4] (read-out: MIC) it was 0.13 mg/L; in [5] (read-out: MIC) it was 0.5 mg/L; in data set [6] (read-out: MIC) it was 0.5 mg/L. Further, the MIC with Enterococcus faecalis (read-out: MIC) was found to be 1 mg/L; with Bacillus subtilis (read-out: MIC), 0.25 mg/L.
With `O=C(CO)N1CC=C(c2ccc(N3C[C@H](COc4cnsn4)OC3=O)cc2F)CC1` [Example 151, 5(R)-1,2,5-Thiadiazol-3-yloxymethyl-3-(4-(1-hydroxyacetyl-1,2,5,6-tetrahydropyrid-4-yl)-3-fluorophenyl)oxazolidin-2-one], the MIC amounted to 0.13 mg/L (≈ 0.299 µM) in data set [1]; 0.25 mg/L (≈ 0.575 µM) in data set [2]; 0.25 mg/L (≈ 0.575 µM) in data set [3]; 0.13 mg/L (≈ 0.299 µM) in [4]; 0.25 mg/L (≈ 0.575 µM) in data set [5]; 0.25 mg/L (≈ 0.575 µM) in data set [6]. Also, the MIC was determined as 0.25 mg/L (≈ 0.575 µM) in the data set on Enterococcus faecalis and 0.13 mg/L (≈ 0.299 µM) in the data set on Bacillus subtilis.
In the case of `O=C1O[C@@H](COc2cnsn2)CN1c1ccc(N2C[C@@H]3C[C@H]2CN3Cc2ccccc2)c(F)c1` [Example 154, 5(R)-1 ,2,5-Thiadiazol-3-yloxymethyl-3-(4-((1 S)(4S)-2-benzyl-2,5-diazabicyclo{2.2.1}heptan-5-yl)-3-fluorophenyl)oxazolidin-2-one], the melting point was in the range of 97 to 98 °C.
Take `O=C([C@H](O)CO)N1CC=C(c2ccc(N3C[C@H](COc4ccon4)OC3=O)cc2)CC1` [Example 40, 5(R)-Isoxazol-3-yloxymethyl-3-(4-(1-(2(R),3-dihydroxypropanoyl)-1,2,5,6-tetrahydropyrid-4-yl)phenyl)oxazolidin-2-one]: the melting point fell in the range of 138 to 144 °C.
As for `O=C([C@@H](O)CO)N1CC=C(c2c(F)cc(N3C[C@H](COc4ccon4)OC3=O)cc2F)CC1` [Example 18, 5(R)-Isoxazol-3-yloxymethyl-3-(4-(1-(2(S),3-dihydroxypropanoyl)-1,2,5,6-tetrahydropyrid-4-yl)-3,5-difluorophenyl)oxazolidin-2-one], the MIC in [1] (read-out: MIC) came to 0.25 mg/L (≈ 0.537 µM); in [2] (read-out: MIC), 0.25 mg/L (≈ 0.537 µM); in [3] (read-out: MIC) it was 0.5 mg/L (≈ 1.07 µM); in [4] (read-out: MIC), 0.13 mg/L (≈ 0.279 µM); in data set [5] (read-out: MIC) it was 0.5 mg/L (≈ 1.07 µM); in data set [6] (read-out: MIC) it was 0.25 mg/L (≈ 0.537 µM). Moreover, the figures for the MIC with Enterococcus faecalis (read-out: MIC) and with Bacillus subtilis (read-out: MIC) were 0.5 mg/L (≈ 1.07 µM) and 0.25 mg/L (≈ 0.537 µM), respectively.
For `O=C([C@@H](O)CO)N1CC=C(c2ccc(N3C[C@H](COc4ccon4)OC3=O)cc2)CC1` [Example 41, 5(R)-Isoxazol-3-yloxymethyl-3-(4-(1-(2(S),3-dihydroxypropanoyl)-1,2,5,6-tetrahydropyrid-4-yl)phenyl)oxazolidin-2-one], the melting point is 200 to 202 °C (dec.).
On to `O=C1O[C@@H](COc2cnsn2)CN1c1ccc(C2=CCOCC2)c(F)c1` [Example 10, 5(R)-(1,2,5-Thiadiazol-3-yloxymethyl)-3-(3-fluoro-4-(3,6-dihydro-(2H)-pyran-4-yl)phenyl)oxazolidin-2-one], for which the melting point was in the range of 46 to 48 °C.

Usually MIC stands for the lowest concentration that inhibits growth of the organism. Broadly, the melting point is the temperature, or range, at which the solid turns liquid.
